Results published in ChEMBL document CHEMBL4052806, “Chemical constituents from the rare mushroom Calvatia nipponica inhibit the promotion of angiogenesis in HUVECs” (Bioorg Med Chem Lett, 2017).
Activity calls are given as the source filed them. No cut-off for these calls is given here.

Key:
HUVEC [1] = test: Cytotoxicity against HUVEC assessed as reduction in cell viability after 24 hrs by MTT assay; type: cell-based; conditions: human
HUVEC [2] = test: Cytotoxicity against HUVEC assessed as reduction in cell viability up to 12.5 ug/ml after 24 hrs by MTT assay; type: cell-based; conditions: human
HUVEC [3] = test: Cytotoxicity against HUVEC assessed as reduction in cell viability at 100 ug/ml after 24 hrs by MTT assay relative to control; type: cell-based; conditions: human
HUVEC [4] = test: Antiangiogenic activity in HUVEC assessed as inhibition of tube formation on matrigel at 12.5 ug/ml after 24 hrs by Mayer's hematoxylin staining based light microscopy relative to control; type: functional; conditions: Homo sapiens
HUVEC [5] = test: Down regulation of VEGF expression in HUVEC at 6.25 ug/ml after 24 hrs by Western blot analysis relative to control; type: functional, Homo sapiens
HUVEC [6] = test: Down regulation of VEGF expression in HUVEC at 12.5 ug/ml after 24 hrs by Western blot analysis relative to control; type: functional, Homo sapiens
[7] = target: T1, MAP kinase p38 (Homo sapiens) (UniProt O15264+Q15759+Q16539+P53778); test: Inhibition of p38 phosphorylation in HUVEC at 6.25 ug/ml after 24 hrs by Western blot analysis relative to control
[8] = target: T1, MAP kinase p38 (Homo sapiens); test: Inhibition of p38 phosphorylation in HUVEC at 12.5 ug/ml after 24 hrs by Western blot analysis relative to control
Homo sapiens [9] = organism: Homo sapiens; test: Inhibition of ERK phosphorylation in HUVEC at 6.25 ug/ml after 24 hrs by Western blot analysis relative to control
Homo sapiens [10] = organism: Homo sapiens; test: Inhibition of ERK phosphorylation in HUVEC at 12.5 ug/ml after 24 hrs by Western blot analysis relative to control
HUVEC [11] = test: Antiangiogenic activity in HUVEC assessed as inhibition of tube formation on matrigel after 24 hrs by Mayer's hematoxylin staining based light microscopy; type: functional, cell-based; conditions: Homo sapiens

SMILES | Activity (HUVEC [1]) | Activity (HUVEC [2]) | Activity (HUVEC [3]) [%] | inhibition at 12.5 µg/mL (HUVEC [4]) [%] | fold change (FC) (HUVEC [5]) | fold change (FC) (HUVEC [6]) | fold change (FC) [7] | fold change (FC) [8] | fold change (FC) (Homo sapiens [9]) | fold change (FC) (Homo sapiens [10]) | inhibition (HUVEC [11])
O=C1NCc2c(O)cc(O)cc21 | Dose-dependent effect | Non-Toxic | 23.13 | 32.6 | 0.9 | 0.72 | 0.87 | 0.71 | 1.05 | 0.9 | –
NC(=O)c1cccnc1 [NIACINAMIDE] | Dose-dependent effect | Non-Toxic | 6.07 | 11.3 | – | – | – | – | – | – | –
CN(C)c1ccccc1C(=O)O | Dose-dependent effect | Non-Toxic | 25.82 | – | – | – | – | – | – | – | inactive
OCc1cc(O)cc(O)c1 | Dose-dependent effect | Non-Toxic | 25.15 | – | – | – | – | – | – | – | inactive
O=C1OCc2cc(O)cc(O)c21 | – | – | – | – | – | – | – | – | – | – | inactive
CNc1ccccc1C(=O)O | Dose-dependent effect | Non-Toxic | 24.55 | – | – | – | – | – | – | – | inactive
CC(=O)Nc1ccc(O)cc1 [ACETAMINOPHEN] | Dose-dependent effect | Non-Toxic | 25.93 | 10.5 | – | – | – | – | – | – | –
